One series addresses T1, human neurotrypsin (Homo sapiens, UniProt P56730).
T1 sequence (P56730 21-875): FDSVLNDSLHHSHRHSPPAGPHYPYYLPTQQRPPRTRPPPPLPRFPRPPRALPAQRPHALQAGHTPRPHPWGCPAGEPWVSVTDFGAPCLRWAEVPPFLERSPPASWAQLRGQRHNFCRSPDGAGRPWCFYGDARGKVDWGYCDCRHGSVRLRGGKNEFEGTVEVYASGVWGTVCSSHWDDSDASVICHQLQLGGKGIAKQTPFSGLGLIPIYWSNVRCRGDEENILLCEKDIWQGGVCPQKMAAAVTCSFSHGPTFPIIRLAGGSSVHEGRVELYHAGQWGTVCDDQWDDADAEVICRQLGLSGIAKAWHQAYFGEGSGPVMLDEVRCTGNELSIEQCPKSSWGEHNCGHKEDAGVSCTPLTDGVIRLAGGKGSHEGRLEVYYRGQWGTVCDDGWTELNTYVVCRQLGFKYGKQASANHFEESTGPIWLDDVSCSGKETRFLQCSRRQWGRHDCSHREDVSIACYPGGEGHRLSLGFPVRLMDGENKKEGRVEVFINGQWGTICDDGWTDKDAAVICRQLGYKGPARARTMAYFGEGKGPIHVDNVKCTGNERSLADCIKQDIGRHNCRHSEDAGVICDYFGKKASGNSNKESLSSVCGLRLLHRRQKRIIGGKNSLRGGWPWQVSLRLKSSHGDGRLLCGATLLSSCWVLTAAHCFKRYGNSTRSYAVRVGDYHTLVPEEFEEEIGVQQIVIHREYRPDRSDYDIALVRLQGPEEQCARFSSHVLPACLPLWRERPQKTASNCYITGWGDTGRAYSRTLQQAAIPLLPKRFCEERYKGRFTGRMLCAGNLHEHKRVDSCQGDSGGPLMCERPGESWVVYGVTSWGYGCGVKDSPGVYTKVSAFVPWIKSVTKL
Put plainly: Determination of IC50 for human neurotrypsin. Conditions: table of all 14 examples; read-out: Neurotrypsin IC50. The series is classed as biochemical. The procedure:
Determination of IC50 for Human Neurotrypsin
Assessment of the potency of compounds of examples 1-14 in inhibiting the enzymatic activity of human neurotrypsin was performed according to the method described in patent application […]

In general, IC50 refers to the concentration needed to halve the response being measured. The melting point is the temperature, or range, at which the solid turns liquid. Turning to `O=C(Nc1ccc(C(=O)Nc2ccc(Cl)cc2F)c(O)c1)c1ccc(-c2nc3cc(Cl)c(Cl)cc3[nH]2)cc1` [Example 9, N-(2-Fluoro-4-chloro-phenyl)-4-(4-(5,6-di-chloro-1H-benzo[d]imidazol-2-yl)-benzamido)-2-hydroxybenzamide], the melting point was more than 220 °C. Also, the IC50 on human neurotrypsin amounted to 1.9 µM.
Turning to “1-(2-Hydroxy-4-(5,6-dichloro-1H-benzo[d]imidazol-2-yl)-benzoyl)-4-benzylpiperidine [Example 10]”, the IC50 on human neurotrypsin stood at 18.3 µM.
`O=C(Nc1ccc(C(=O)Nc2ccc(Cl)cc2)c(O)c1)c1ccc(Oc2ccc(Cl)c(Cl)c2)cc1` [Example 5] displayed a melting point of more than 220 °C. Besides, the IC50 on human neurotrypsin stood at 13.9 µM.
Compound `O=C(Nc1ccc(C(=O)Nc2ccc(Cl)cc2)c(O)c1)c1ccc(-c2ccc(F)cc2)s1` [Example 6] yielded a melting point of more than 220 °C. Moreover, on human neurotrypsin, the IC50 worked out at 3.4 µM.
`O=C(Nc1ccc(Cl)cc1)c1ccc(NC(=O)c2[nH]c3ccc(Cl)cc3c2-c2ccccc2)cc1O` [Example 8, N-(4-Chlorophenyl)-4-(5-chloro-3-phenylindole-2-carbonyl)amino-2-hydroxybenzamide] had a melting point of more than 220 °C. The IC50 at human neurotrypsin is 10.8 µM.
Taken in the same sequence, the figures for `O=C(Nc1ccc(C(=O)Nc2ccc(F)cc2F)c(O)c1)c1ccc(-c2nc3cc(Cl)c(Cl)cc3[nH]2)cc1` [Example 11, N-(2,4-Difluorophenyl)-4-(4-(5,6-dichloro-1H-benzo[d]imidazol-2-yl)-benzamido)-2-hydroxybenzamide] were more than 220 °C and 1.1 µM.
In turn, `CCCCc1ccc(NC(=O)c2ccc(NC(=O)c3ccc(-c4nc5cc(Cl)c(Cl)cc5[nH]4)cc3)cc2O)cc1` [Example 14, N-(4-Butylphenyl)-4-(4-(5,6-dichloro-1H-benzo[d]imidazol-2-yl)-benzamido)-2-hydroxybenzamide] gave a melting point of more than 220 °C. Also, the IC50 at human neurotrypsin stood at 1.7 µM.
In the case of `CC(C)CN(CC(C)C)C(=O)c1ccc(NC(=O)c2ccc(-c3nc4cc(Cl)c(Cl)cc4[nH]3)cc2)cc1O` [Example 13, N,N-Diisobutyl-2-hydroxy-4-((5,6-dichloro-1H-benzo[d]imidazol-2-yl)-benzamido)benzamide], at human neurotrypsin, the IC50 was 55.1 µM.
`O=C(Nc1ccccc1F)c1ccc(NC(=O)c2[nH]c3ccc(Cl)cc3c2-c2ccccc2)cc1O` [Example 2, N-(2-Fluorophenyl)-4-(5-chloro-3-phenyl-indole-2-carbonyl)amino-2-hydroxybenzamide] registered a melting point of more than 220 °C. The IC50 at human neurotrypsin stood at 32.8 µM.
For `O=C(Nc1ccc(C(=O)Nc2ccc(Cl)cc2)c(O)c1)c1ccc2cc(Cl)c(Cl)cc2n1` [Example 7, N-(4-Chlorophenyl)-4-(6,7-dichloroquinoline-2-carbonyl)amino-2-hydroxybenzamide] the same measures were more than 220 °C and 26.7 µM.
Consider “1-(2-Hydroxy-4-(5,6-dichloro-1H-benzo[d]imidazol-2-yl)-benzoyl)-4-phenoxypiperidine [Example 12]”, for which, at human neurotrypsin, the IC50 is 1.5 µM.
`O=C(Nc1ccc(Cl)cc1)c1ccc(NC(=O)c2sc3ccccc3c2Cl)cc1O` [Example 4, N-(4-Chlorophenyl)-4-[(3-chlorobenzo[b]-thiophene-2-carbonyl)amino]-2-hydroxybenzamide] had a melting point of more than 220 °C. Also, on human neurotrypsin, the IC50 was found to be 55.5 µM.
Regarding `O=C(Nc1ccc(C(=O)Nc2ccc(Cl)cc2)c(O)c1)c1ccc(-c2ccc(F)cc2)cc1` [Example 3], the melting point is more than 220 °C. At human neurotrypsin, the IC50 stood at 7.6 µM.

The values above are taken from US20130245064A1, “NOVEL NEUROTRYPSIN INHIBITORS” (priority 2010, published 2013).
